Measured values reported in patent US20240425497A1, “Cbl-b Inhibitors and Methods of Use Thereof” (ARCUS BIOSCIENCES, INC., priority 2023, published 2024).

What was measured:
Jurkat cells = test: IL-2 secretion assay in CD3/CD28-activated Jurkat cells (AlphaLISA); type: cell-based, human; conditions: Homo sapiens, CD3/CD28 activation, 24 h
Method: Certain compounds were also evaluated in an IL-2 secretion assay. On the day of the assay, a 16 point, 1:2 master serial dilution of each compound was prepared in Opti-MEM to span a final concentration range of […]. Assays were set up in CORNING® tissue culture-treated 384-well microplates containing 60 nL of each dilution. Jurkat cells grown in RPMI-1640 supplemented with 10% FBS, 1% Glutamax, and 1% Pen/Strep were collected, resuspended in Opti-MEM. 50,000 cells/well and added to the compound plates. After a short spin (1200 rpm for 1 min), the plates were incubated at 37° C. for 1 hour. The cells were activated by adding 15 μL of IMMUNOCULT™ Human CD3/CD28 T Cell Activator (STEMCELL Technologies) diluted in Opti-MEM. After 24 h of incubation at 37° C., aliquots of culture supernatants were transferred to OptiPlate-384 (PerkinElmer) microplates. The level of JIL-2 secretion in the supernatants was then determined using the IL-2 (human) AiphaLISA Detection Kit (PerkinElmer) according to the manufacturer's recommendations. The AiphaLISA signal was measured using an EnVision plate reader (PerkinElmer). EC50 values were determined by fitting the data to a standard 4-parameter logistic equation. See Table 3 for data for select compounds (IL-2 Secretion (EC50)).

Cbl-b = Cbl-b (Homo sapiens (Human), UniProt Q13191); test: Cbl-b probe displacement HTRF binding assay; conditions: 0.4 nM biotinylated Cbl-b, 150 nM BODIPY probe
Cbl-b, sequence (Q13191 whole entry, species assumed): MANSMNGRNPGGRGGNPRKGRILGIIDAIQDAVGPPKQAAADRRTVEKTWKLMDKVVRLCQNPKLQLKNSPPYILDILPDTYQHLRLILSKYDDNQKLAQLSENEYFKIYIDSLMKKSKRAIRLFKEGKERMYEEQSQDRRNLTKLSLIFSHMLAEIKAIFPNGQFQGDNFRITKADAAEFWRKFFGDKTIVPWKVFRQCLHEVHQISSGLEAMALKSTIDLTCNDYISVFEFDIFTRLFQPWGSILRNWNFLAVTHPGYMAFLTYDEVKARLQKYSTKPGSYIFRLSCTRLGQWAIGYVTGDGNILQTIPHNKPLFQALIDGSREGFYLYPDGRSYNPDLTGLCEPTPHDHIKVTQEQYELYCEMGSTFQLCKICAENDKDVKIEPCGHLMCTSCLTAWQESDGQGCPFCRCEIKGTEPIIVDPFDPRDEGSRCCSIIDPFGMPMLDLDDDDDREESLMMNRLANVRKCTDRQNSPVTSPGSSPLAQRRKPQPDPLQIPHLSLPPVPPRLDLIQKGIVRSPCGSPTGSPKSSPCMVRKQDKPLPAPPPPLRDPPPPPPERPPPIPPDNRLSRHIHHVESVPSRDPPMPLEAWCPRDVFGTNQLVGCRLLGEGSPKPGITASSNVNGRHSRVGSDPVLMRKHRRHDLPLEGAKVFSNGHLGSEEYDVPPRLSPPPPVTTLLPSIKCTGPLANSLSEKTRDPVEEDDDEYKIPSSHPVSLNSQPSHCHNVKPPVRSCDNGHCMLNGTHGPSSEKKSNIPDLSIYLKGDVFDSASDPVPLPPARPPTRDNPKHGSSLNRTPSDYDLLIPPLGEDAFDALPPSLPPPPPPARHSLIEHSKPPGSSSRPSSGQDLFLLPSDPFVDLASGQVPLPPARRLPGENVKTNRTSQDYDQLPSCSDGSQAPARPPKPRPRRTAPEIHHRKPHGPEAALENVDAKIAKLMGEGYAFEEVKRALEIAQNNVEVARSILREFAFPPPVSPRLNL
Method: The affinity with which compounds of the present disclosure bind to Cbl-b was assessed using probe displacement homologous time resolved fluorescence (HTRF) assays. The assays used a BODIPY™ conjugated probe (Example 54 from WO 2020264398) and biotinylated Cbl-b. The assays were performed in assay buffer consisting of 20 mM Hepes, 150 mM NaCl, 0.01% Triton X-100, 0.5 mM TCEP, 0.01% BSA. On the day of the assay, a 20 point, 1:2 master serial dilution of each compound was prepared in DMSO to span a final concentration range of 10 μM to 0 nM. Two hundred nanoliters of diluted compound was added to each well of a 384-well plate. Fifteen microliters of biotinylated-Cbl-b resuspended in assay buffer were added to each well and the plate incubated for 60 minutes at room temperature prior to addition of 5 μL of BODIPY™ probe in assay buffer. Final assay conditions included 0.4 nM of Cbl-b and 150 nM of BODIPY™ probe. After a further 15 minutes of incubation at room temperature, 5 μl of Streptavidin-Terbium cryptate reagent at 5-fold final concentration was added to each well of the 384-well plate. Binding of a probe to Cbl-b results in an increase of HTRF signal. HTRF signal was measured by Envision plate reader, while competition of a compound of the present disclosure with probe results in a decrease of signal. Percentage maximum activity in each test well was calculated based on DMSO (maximum activity, 0% displacement) and no protein control wells (baseline activity, 100% displacement). Binding affinity was determined from a dose response curve fitted using a standard four parameter fit equation. See Table 3 for data for compounds (Cbl-b Binding (IC50)).

SMILES	EC50 (Jurkat cells)	IC50 (Cbl-b)
CC1CCN1C(=O)c1cc(F)ccc1-c1cc(C2CC2)nc(-n2cc(C3CC3)c3cc(CN4CCC[C@H](C)C4)[nH]c3c2=O)c1 (stereo partly drawn) [Example 15, 2-{[(S)-3-methyl-1-piperidyl]methyl}-4-cyclopropyl-6-(6-cyclopropyl-4-{4-fluoro-2-[(2-methyl-1-azetidinyl)carbonyl]phenyl}-2-pyridyl)-1,6-dihydro-1,6-diaza-7-indenone]	100 to 1000 nM	< 100 nM
C[C@H]1CCCN(Cc2cc3c(C4CC4)cn(-c4cc(-c5ccc(F)cc5C(=O)N5CC(C#N)C5)cc(C5CC5)n4)c(=O)c3[nH]2)C1 [Example 16, 1-{2-[2-(2-{[(S)-3-methyl-1-piperidyl]methyl}-4-cyclopropyl-7-oxo-1,6-dihydro-1,6-diaza-6-indenyl)-6-cyclopropyl-4-pyridyl]-5-fluorobenzoyl}-3-azetidinecarbonitrile]	< 100 nM	< 100 nM
O=C(c1cc(F)ccc1-c1cc(C2CC2)nc(-n2cc(C3CC3)c3cc(CN[C@H]4CCC[C@H]4O)[nH]c3c2=O)c1)N1CC(F)C1 [Example 17, 2-{[(1S,2R)-2-hydroxycyclopentylamino]methyl}-4-cyclopropyl-6-(6-cyclopropyl-4-{4-fluoro-2-[(3-fluoro-1-azetidinyl)carbonyl]phenyl}-2-pyridyl)-1,6-dihydro-1,6-diaza-7-indenone]	< 100 nM	< 100 nM
C[C@H]1CCCN(Cc2cc3c(C4CC4)cn(-c4cc(-c5ccc(F)cc5C(N)=O)cc(C5CC5)n4)c(=O)c3[nH]2)C1 [Example 18, 2-[2-(2-{[(S)-3-methyl-1-piperidyl]methyl}-4-cyclopropyl-7-oxo-1,6-dihydro-1,6-diaza-6-indenyl)-6-cyclopropyl-4-pyridyl]-5-fluorobenzamide]	100 to 1000 nM	100 to 1000 nM
C[C@H]1CCCN(Cc2cc3c(C#N)cn(-c4cc(-c5ccc(F)c(F)c5C(=O)N(C)C)cc(C5CC5)n4)c(=O)c3[nH]2)C1 [Example 19, N,N-dimethyl6-[2-(2-{[(S)-3-methyl-1-piperidyl]methyl}-4-cyano-7-oxo-1,6-dihydro-1,6-diaza-6-indenyl)-6-cyclopropyl-4-pyridyl]-2,3-difluorobenzamide]	100 to 1000 nM	< 100 nM
C[C@H]1CCCN(Cc2cc3c(C#N)cn(-c4cc(-c5cccnc5C(=O)N(C)C)cc(C5CC5)n4)c(=O)c3[nH]2)C1 [Example 20, N,N-dimethyl-2′-(2-{[(S)-3-methyl-1-piperidyl]methyl}-4-cyano-7-oxo-1,6-dihydro-1,6-diaza-6-indenyl)-6′-cyclopropyl-[3,4′-bipyridyl]-2-carboxamide]	1000 to 5000 nM	100 to 1000 nM
C[C@H]1CCCN(Cc2cc3c(C#N)cn(-c4cc(-c5ccc(F)cc5C(=O)N5CC(F)C5)cc(C5CC5)n4)c(=O)c3[nH]2)C1 [Example 21, 2-{[(S)-3-methyl-1-piperidyl]methyl}-6-(6-cyclopropyl-4-{4-fluoro-2-[(3-fluoro-1-azetidinyl)carbonyl]phenyl}-2-pyridyl)-7-oxo-1,6-dihydro-1,6-diaza-4-indenecarbonitrile]	< 100 nM	< 100 nM
C[C@H]1CCCN(Cc2cc3c(C#N)cn(-c4cc(C#N)cc(-c5ccc(F)cc5C(=O)N5CC(F)C5)c4)c(=O)c3[nH]2)C1 [Example 22, 2-{[(S)-3-methyl-1-piperidyl]methyl}-6-{5-cyano-4′-fluoro-2′-[(3-fluoro-1-azetidinyl)carbonyl]-3-biphenylyl}-7-oxo-1,6-dihydro-1,6-diaza-4-indenecarbonitrile]	100 to 1000 nM	< 100 nM
C[C@H]1CCCN(Cc2cc3c(C#N)cn(-c4cc(-c5ccc(F)cc5C(=O)N5CC(F)C5)cc(C(F)(F)F)c4)c(=O)c3[nH]2)C1 [Example 23, 2-{[(S)-3-methyl-1-piperidyl]methyl}-6-{4′-fluoro-2′-[(3-fluoro-1-azetidinyl)carbonyl]-5-(trifluoromethyl)-3-biphenylyl}-7-oxo-1,6-dihydro-1,6-diaza-4-indenecarbonitrile]	1000 to 5000 nM	100 to 1000 nM
C[C@H]1CCCN(Cc2cc3c(C#N)cn(-c4cncc(-c5ccc(F)cc5C(=O)N5CC(F)C5)c4)c(=O)c3[nH]2)C1 [Example 24, 2-{[(S)-3-methyl-1-piperidyl]methyl}-6-(5-{4-fluoro-2-[(3-fluoro-1-azetidinyl)carbonyl]phenyl}-3-pyridyl)-7-oxo-1,6-dihydro-1,6-diaza-4-indenecarbonitrile]	100 to 1000 nM	100 to 1000 nM
C[C@H]1CCCN(Cc2cc3ncn(-c4cc(-c5ccc(F)cc5C(=O)N5CC(F)C5)cc(C5CC5)n4)c(=O)c3[nH]2)C1 [Example 25, 2-{[(S)-3-methyl-1-piperidyl]methyl}-6-(6-cyclopropyl-4-{4-fluoro-2-[(3-fluoro-1-azetidinyl)carbonyl]phenyl}-2-pyridyl)-1,6-dihydro-1,4,6-triaza-7-indenone]	< 100 nM	< 100 nM
C[C@@H]1CN(Cc2cc3ncn(-c4cc(-c5ccc(F)cc5C(=O)N5CC(F)C5)cc(C5CC5)n4)c(=O)c3[nH]2)CCO1 [Example 26, 3-[6-cyclopropyl-4-[4-fluoro-2-(3-fluoroazetidine-1-carbonyl)phenyl]pyridin-2-yl]-6-[[(2R)-2-methylmorpholin-4-yl]methyl]-5H-pyrrolo[3,2-d]pyrimidin-4-one]	< 100 nM	< 100 nM
CC(O)c1cc2ncn(-c3cc(-c4ccc(F)cc4C(=O)N4CC(F)C4)cc(C4CC4)n3)c(=O)c2[nH]1 (stereo not drawn) [Example 27, 6-(6-cyclopropyl-4-{4-fluoro-2-[(3-fluoro-1-azetidinyl)carbonyl]phenyl}-2-pyridyl)-2-(1-hydroxyethyl)-1,6-dihydro-1,4,6-triaza-7-indenone]	1000 to 5000 nM	100 to 1000 nM
C[C@H]1CCCN(Cc2ccc3c(c2)C(=O)N(c2cc(-c4ccc(F)cc4C(=O)N4CC(F)C4)cc(C4CC4)n2)C3)C1 [Example 28, 6-{[(S)-3-methyl-1-piperidyl]methyl}-2-(6-cyclopropyl-4-{4-fluoro-2-[(3-fluoro-1-azetidinyl)carbonyl]phenyl}-2-pyridyl)-1-isoindolinone]	100 to 1000 nM	< 100 nM
C[C@H]1CCCN(Cc2nc3c(C4CC4)cn(-c4cc(-c5ccc(F)cc5C(=O)N5CC(F)C5)cc(C5CC5)c4)c(=O)c3[nH]2)C1 [Example 29, 7-cyclopropyl-5-[3-cyclopropyl-5-[4-fluoro-2-(3-fluoroazetidine-1-carbonyl)phenyl]phenyl]-2-[[(3S)-3-methylpiperidin-1-yl]methyl]-3H-imidazo[4,5-c]pyridin-4-one]	< 100 nM	< 100 nM
C[C@H]1CCCN(Cc2cc3c(C4CC4)cn(-c4cc(-c5ccc(F)cc5C(=O)N5CC(F)C5)nc(C5CC5)n4)c(=O)c3[nH]2)C1 [Example 30, 4-cyclopropyl-6-[2-cyclopropyl-6-[4-fluoro-2-(3-fluoroazetidine-1-carbonyl)phenyl]pyrimidin-4-yl]-2-[[(3S)-3-methylpiperidin-1-yl]methyl]—1H-pyrrolo[2,3-c]pyridin-7-one]	< 100 nM	< 100 nM
C[C@H]1CCCN(Cc2cc3c(C4CC4)cn(-c4nc(-c5ccc(F)cc5C(=O)N5CC(F)C5)cc(C5CC5)n4)c(=O)c3[nH]2)C1 [Example 31, 4-cyclopropyl-6-[4-cyclopropyl-6-[4-fluoro-2-(3-fluoroazetidine-1-carbonyl)phenyl]pyrimidin-2-yl]-2-[[(3S)-3-methylpiperidin-1-yl]methyl]—1H-pyrrolo[2,3-c]pyridin-7-one]	> 5000 nM	1000 to 5000 nM
O=C(c1cc(F)ccc1-c1cc(C2CC2)nc(-n2cnc3cc(C4CCNC4)[nH]c3c2=O)c1)N1CC(F)C1 (stereo not drawn) [Example 32, 3-[6-cyclopropyl-4-[4-fluoro-2-(3-fluoroazetidine-1-carbonyl)phenyl]pyridin-2-yl]-6-pyrrolidin-3-yl-5H-pyrrolo[3,2-d]pyrimidin-4-one]	1000 to 5000 nM	< 100 nM
